These results are taken from patent publication US10940188B2, “Compounds and methods for treatment and prevention of Flavivirus infection” (priority 2016, dated 2021).

This experiment has as its system ZIKV production from SNB-19 cells. Kind of experiment: Infectious ZIKV production from SNB-19 cells, focus-forming unit assay on Vero cells. Type of experiment: cell-based, Zika virus. As to the method:
FIGS. 2A-1, 2A-2, 2B-1, 2B-2, 2C-1, 2C-2, 2D-1, 2D-2, 2D-3, 2E-1, 2E-2, and 2F. […] Screening of select compounds for antiviral activity against ZIKV infection was carried out. Glioblastoma SNB-19 cells were treated with indicated compound at 10×AC50 (determined in the primary caspase screen) for 1 hour prior to inoculation with FSS-13025 (at MOI=1). Cells were harvested 24 hours post infection and analyzed by Western blot for ZIKV-NS1 or GAPDH (FIGS. 2A-1 and 2A-2). Titration of PHA-690509 on glioblastoma cells for anti-ZIKV activity. Three strains of virus (FSS-13025, PRVABC59, and MR766; MOI=1) were tested. Shown are sample western blot images (FIG. 2B-1) and ImageJ quantification (FIG. 2B-2). Values represent mean±s.d. (n=3; ***P<0.001; One-way ANOVA). Titration of Emricasan on SNB-19 cells for anti-ZIKV activity was conducted similarly (FIGS. 2C-1 and 2C-2). Values represent mean±s.d. […] Sample western blot (FIG. 2D-2) and ImageJ quantification (FIG. 2D-3) are shown for infection with the PRVABC59 strain (MOI=1). Results for additional strains are shown in FIGS. 6A-F. Values represent mean±s.d. […] The concentration of NS1 in the medium of infected SNB-19 cells collected 24 hours post-infection was quantified by a ZIKV-NS1 ELISA kit (FIGS. 2E-1 and 2E-2). […] Cell culture supernatant was collected 24 hours after infection, and infectious virions were quantified for focus-forming units (FFU) using Vero cells. […] Curves represent best fits for calculating IC50 values, and the insets report the calculated IC50 value for each compound.
FIGS. 18A, 18B, 18C-1, 18C-2, 18D, 18E, 18F, 18G-1, and 18G-2. […] 24 hours post infection, supernatants from SNB-19 cells were titrated onto naïve vero cells plated in a monolayer in 96-well plates for infectious focus-forming unit assay as previously described and focus forming units quantified. […] Immunofluorescence (IF) staining (FIG. 18C-1) and quantification (FIG. 18C-2) of ZIKV positive SNB-19 cells following infection with one of three ZIKV strains and treatment with emetine at 0.01, 0.1, or 1 μM. […]
FIG. 21. […] IC50's calculated using graphpad PRISM software. […]

One may read the IC50 as the concentration needed to halve the response being measured.

Regarding `O=C(Nc1ccc([N+](=O)[O-])cc1Cl)c1cc(Cl)ccc1O` [Niclosamide], the “potency on inhibition of ZIKV replication” value is “submicromolar range”.

For the compound `CC[C@H]1CN2CCc3cc(OC)c(OC)cc3[C@@H]2C[C@@H]1C[C@H]1NCCc2cc(OC)c(OC)cc21` [Emetine], the half-inhibitory concentration (IC50) (Zika virus, SNB-19 cells, each of three ZIKV strains, read-out: IC50 of infectious ZIKV production) is at most 10 nM.
